Patent US20230257468A1, “CIS-Binding Siglec Agonists and Related Compositions And Methods” (The Board of Trustees of the Leland Stanford Junior …, priority 2020, published 2023)

Experiments:
Assay type in all cases: cell-based, human
neutrophils = test: Oxidative burst (ROS) in neutrophils
PADI4 substrate H3 = test: Western blot of H3 citrullination in neutrophils
primary neutrophils = test: Live-cell imaging NETosis assay, primary neutrophils; settings: healthy neutrophils in vitro
Protocol: (a-c) Primary neutrophils were cotreated with R848 (10 μM) and glycopolypeptide (500 nM) in IMDM supplemented 0.5% hiFBS containing the membrane impermeable DNA intercalators Cytotox Green or Red (250 nM). Images were acquired by fluorescence microscopy every 15 min for 12 h. The area of all green fluorescent objects >300 μm^2 was quantified and the total area was averaged across three images per well. Relative NETosis was determined by normalizing to the maximal NET area from R848 treatment alone (t=8 h). (a) Representative phase contrast and fluorescence images from t=8 h. Scale bars indicate 40 μm. (b) Quantitation of NETosis over time as area under the curve in (c). Error bars represent SD. (c) NET formation and degradation as a function of time. Error bands represent SEM. (d) Treatment of R848-stimulated neutrophils with various glycopolypeptides. Error bars represent SD. […] Statistics were determined by two-way ANOVA (b) or one-way ANOVA (c,d,f). * p<0.05; ** p<0.01; *** p<0.001; **** p<0.0001.
TLR agonists were assayed using the live-cell imaging techniques in which freshly isolated neutrophils are cultured in low-serum media in the presence of a fluorogenic and membrane impermeable DNA-intercalating dye (Cytotox Green). Upon genomic DNA-externalization by NETosis, dye intercalates and fluorescence increases. […]

dHL-60 cells = test: NETosis in neutrophil-like dHL-60 cells
Protocol: (a-c) Primary neutrophils were cotreated with R848 (10 μM) and glycopolypeptide (500 nM) in IMDM supplemented 0.5% hiFBS containing the membrane impermeable DNA intercalators Cytotox Green or Red (250 nM). Images were acquired by fluorescence microscopy every 15 min for 12 h. The area of all green fluorescent objects >300 μm^2 was quantified and the total area was averaged across three images per well. Relative NETosis was determined by normalizing to the maximal NET area from R848 treatment alone (t=8 h). (a) Representative phase contrast and fluorescence images from t=8 h. Scale bars indicate 40 μm. (b) Quantitation of NETosis over time as area under the curve in (c). Error bars represent SD. (c) NET formation and degradation as a function of time. Error bands represent SEM. (d) Treatment of R848-stimulated neutrophils with various glycopolypeptides. Error bars represent SD. (e) pS9L is a mucin-like glycopolypeptide that bears high affinity and specific ligands for Siglec-9 and is functionalized with a membrane-tethering lipid tail. (f) HL-60 cells were transfected with siRNAs against SIGLEC9 (encoding Siglec-9), PTPN6 (encoding SHP-1), or a scrambled control and then grown for two days. Cells were then cotreated with R848 (10 μM) and vehicle or pS9L (500 nM). […] Statistics were determined by two-way ANOVA (b) or one-way ANOVA (c,d,f). * p<0.05; ** p<0.01; *** p<0.001; **** p<0.0001. […]

O=S(=O)(O)c1ccc2cc(N=Nc3cc(S(=O)(=O)O)c4cccnc4c3O)ccc2c1 [NSC-87877]
inhibition of pS9L-induced oxidative burst (neutrophils): the oxidative burst was inhibited

CCCCCCCCCCCCCC(=O)O[C@@H]1[C@@H](C)[C@@]2(O)[C@@H](C=C(CO)C[C@]3(O)C(=O)C(C)=C[C@@H]23)[C@@H]2C(C)(C)[C@]12OC(C)=O [PMA, phorbol-12-myristate-13-acetate]
citrullination of H3 (PADI4 substrate H3): only yields moderate citrullination

CCOCc1nc2c(N)nc3ccccc3c2n1CC(C)(C)O [R848]
induction of NETosis (primary neutrophils): sufficient to induce NETosis | citrullination of H3 (PADI4 substrate H3): rapidly induced citrullination at R2, R8, and R17 | induction of NETosis (dHL-60 cells): induced NETosis
